From patent US20070275968A1, “Substituted Biphenyl Derivative” (priority 2004, published 2007)

SMILES | melting point [°C]
Cc1cccc(-c2nc(C(C)C)[nH]c2-c2cccc(-c3ccc(S(N)(=O)=O)cc3)c2)n1 [Example 37, 3′-[2-Isopropyl-4-(6-methylpyridin-2-yl)-1H-imidazol-5-yl]-1,1′-biphenyl-4-sulfonamide] | 255 to 258
CNS(=O)(=O)c1ccc(-c2cccc(-c3nc(C(C)C)[nH]c3-c3cccc(C)n3)c2)cc1 [Example 38, 3′-[2-Isopropyl-5-(6-methylpyridin-2-yl)-1H-imidazol-4-yl]-N-methyl-1,1′-biphenyl-4-sulfonamide] | 96 to 100
Cc1cccc(-c2[nH]c(C(C)C)nc2-c2cccc(-c3ccc(S(=O)(=O)N(C)C)cc3)c2)n1 [Example 39, 3′-[2-Isopropyl-5-(6-methylpyridin-2-yl)-1H-imidazol-4-yl]-N,N-dimethyl-1,1′-biphenyl-4-sulfonamide] | 93 to 96
Cc1cccc(-c2[nH]c(C(C)C)nc2-c2cccc(-c3ccc(S(=O)(=O)N4CCOCC4)cc3)c2)n1 [Example 40, 4-({3′-[2-Isopropyl-5-(6-methylpyridin-2-yl)-1H-imidazol-4-yl]-1,1′-biphenyl-4-yl}sulfonyl)morpholine] | 88 to 92
Cc1cccc(-c2[nH]c(C(C)C)nc2-c2cccc(-c3ccc(S(=O)(=O)N4CCN(C)CC4)cc3)c2)n1 [Example 41, 1-({3′-[2-Isopropyl-5-(6-methylpyridin-2-yl)-1H-imidazol-4-yl]-1,1′-biphenyl-4-yl}sulfonyl)-4-methylpiperazine] | 110 to 116
Cc1cccc(-c2[nH]c(C(C)C)nc2-c2cccc(-c3cccc(S(N)(=O)=O)c3)c2)n1 [Example 42, 3′-[2-Isopropyl-5-(6-methylpyridin-2-yl)-1H-imidazol-4-yl]-1,1′-biphenyl-3-sulfonamide] | 123 to 126
Cc1cccc(-c2[nH]c(C(C)C)nc2-c2cccc(-c3ccccn3)c2)n1 [Example 43, 2-[2-Isopropyl-4-(3-pyridin-2-ylphenyl)-1H-imidazol-5-yl]-6-methylpyridine] | 97 to 100
Cc1cccc(-c2[nH]c(C(C)C)nc2-c2cccc(-c3ccc(C(=O)NC4CCOCC4)cc3)c2)n1 [Example 44, N-(Tetrahydropyran-4-yl)-4-{3-[2-isopropyl-5-(6-methylpyridin-2-yl)-1H-imidazol-4-yl]-phenyl}benzamide] | 140
Cc1cccc(-c2[nH]c(CC(C)C)nc2-c2cccc(-c3ccc(C(=O)NC4CCOCC4)cc3)c2)n1 [Example 45, N-(Tetrahydropyran-4-yl)-4-{3-[2-isobutyl-5-(6-methylpyridin-2-yl)-1H-imidazol-4-yl]phenyl}benzamide] | 126 to 129
Cc1cccc(-c2[nH]c(C3CC3)nc2-c2cccc(-c3ccc(C(=O)NC4CCOCC4)cc3)c2)n1 [Example 46, N-(Tetrahydropyran-4-yl)-4-{3-[2-cyclopropyl-5-(6-methylpyridin-2-yl)-1H-imidazol-4-yl]phenyl}benzamide] | 127 to 128
Cc1cccc(-c2[nH]c(C(C)C)nc2-c2cccc(-c3ccc(C(=O)NN4CCOCC4)cc3)c2)n1 [Example 51, N-(Morpholin-4-yl)-4-{3-[2-isopropyl-5-(6-methylpyridin-2-yl)-1H-imidazol-4-yl]-phenyl}benzamide] | 145
Cc1cccc(-c2nc(C(C)C)[nH]c2-c2cccc(-c3ccc(C(=O)N4CC[S+]([O-])CC4)cc3)c2)n1 [Example 56, 4-({3′-[2-Isopropyl-4-(6-methylpyridin-2-yl)-1H-imidazol-5-yl]-1,1′-biphenyl-4-yl}carbonyl)thiomorpholine 1-oxide] | 136 to 140
Cc1cccc(-c2nc(C(C)C)[nH]c2-c2cccc(-c3ccc(C(=O)N4CCS(=O)(=O)CC4)cc3)c2)n1 [Example 57, 4-({3′-[2-Isopropyl-4-(6-methylpyridin-2-yl)-1H-imidazol-5-yl]-1,1′-biphenyl-4-yl}carbonyl)thiomorpholine 1,1-dioxide] | 141 to 145
Cc1cccc(-c2[nH]c(C(C)C)nc2-c2ccc(F)c(-c3ccc(S(C)(=O)=O)cc3)c2)n1 [Example 61, 2-{4-[6-Fluoro-4′-(methylsulfonyl)-1,1′-biphenyl-3-yl]-2-isopropyl-1H-imidazol-5-yl}-6-methylpyridine] | 113 to 115
Cc1cccc(-c2nc(N)sc2-c2cccc(-c3ccc(S(C)(=O)=O)cc3)c2)n1 [Example 62, 4-(6-Methylpyridin-2-yl)-5-[4′-(methylsulfonyl)-1,1′-biphenyl-3-yl]-1,3-thiazol-2-amine] | 107 to 109
CCc1cccc(-c2[nH]c(C(C)C)nc2-c2cccc(-c3ccc(S(C)(=O)=O)cc3)c2)n1 [Example 64, 2-Ethyl-6-{2-isopropyl-4-[4′-(methylsulfonyl)-1,1′-biphenyl-3-yl]-1H-imidazol-5-yl}pyridine] | 108 to 110
Cc1cccc(-c2[nH]c(C(C)C)nc2-c2ccc(F)c(-c3ccc(C(=O)NN4CCOCC4)cc3)c2)n1 [Example 66, N-(Morpholin-4-yl)-4-{2-fluoro-5-[2-isopropyl-5-(6-methylpyridin-2-yl)-1H-imidazol-4-yl]phenyl}benzamide] | 153 to 155

Results, then the compound that gave them:

melting point [°C] | SMILES
146 to 148 | Cc1cccc(-c2[nH]c(C(C)C)nc2-c2cccc(-c3ccc(NC(=O)NN4CCOCC4)cc3)c2)n1 [Example 67, N-{3′-[2-Isopropyl-5-(6-methylpyridin-2-yl)-1H-imidazol-4-yl]-1,1′-biphenyl-4-yl}-N′-morpholin-4-ylurea]
128 to 130 | Cc1cccc(-c2[nH]c(C(C)C)nc2-c2cccc(-c3ccc(C)[nH]3)c2)n1 [Example 69, 2-{2-Isopropyl-4-[3-(5-methyl-1H-pyrrol-2-yl)phenyl]-1H-imidazol-5-yl}-6-methylpyridine]
84 to 86 | Cc1cccc(-c2nc(C(C)C)[nH]c2-c2cccc(-c3cnn(C)c3)c2)n1 [Example 70, 2-{2-Isopropyl-5-[3-(1-methyl-1H-pyrazol-4-yl)phenyl]-1H-imidazol-4-yl}-6-methylpyridine]
179 to 184 | Cc1cccc(-c2[nH]c(C(C)C)nc2-c2cccc(-c3ccc(NS(C)(=O)=O)cc3F)c2)n1 [Example 73, N-{2-Fluoro-3′-[2-isopropyl-5-(6-methylpyridin-2-yl)-1H-imidazol-4-yl]-1,1′-biphenyl-4-yl}methanesulfonamide]
124 to 128 | Cc1cccc(-c2[nH]c(C(C)C)nc2-c2cccc(-c3ccc(NS(=O)(=O)C4CC4)cc3F)c2)n1 [Example 74, N-{2-Fluoro-3′-[2-isopropyl-5-(6-methylpyridin-2-yl)-1H-imidazol-4-yl]-1,1′-biphenyl-4-yl}cyclopropanesulfonamide]
246 to 248 | Cc1cccc(-c2[nH]c(C(C)C)nc2-c2cccc(-c3ccc(S(N)(=O)=O)cc3F)c2)n1 [Example 75, 2-Fluoro-3′-[2-isopropyl-5-(6-methylpyridin-2-yl)-1H-imidazol-4-yl]-1,1′-biphenyl-4-sulfonamide]
119 to 124 | Cc1cccc(-c2[nH]c(C(C)C)nc2-c2cccc(-c3ccc(N)cn3)c2)n1 [Example 76, 6-{3-[2-Isopropyl-5-(6-methylpyridin-2-yl)-1H-imidazol-4-yl]phenyl}pyridine-3-amine]
112 to 114 | Cc1cccc(-c2[nH]c(C(C)C)nc2-c2cccc(-c3cc[nH]c3)c2)n1 [Example 78, 2-{2-Isopropyl-4-[3-(1H-pyrrol-3-yl)phenyl]-1H-imidazol-5-yl}-6-methylpyridine]
145 to 148 | Cc1cccc(-c2[nH]c(C(C)C)nc2-c2cccc(-c3ccc4c(c3)C(=O)CC[S+]4[O-])c2)n1 (stereo not shown) [Example 80, 6-{3-[2-Isopropyl-5-(6-methylpyridin-2-yl)-1H-imidazol-4-yl]phenyl}-2,3-dihydro-4H-thiochromen-4-one 1-oxide]
115 to 119 | Cc1cccc(-c2[nH]c(C(C)C)nc2-c2cccc(-c3ccc4c(c3)C(=O)CCS4(=O)=O)c2)n1 [Example 81, 6-{3-[2-Isopropyl-5-(6-methylpyridin-2-yl)-1H-imidazol-4-yl]phenyl}-2,3-dihydro-4H-thiochromen-4-one 1,1-dioxide]
115 to 117 | Cc1cccc(-c2[nH]c(C(C)C)nc2-c2cccc(-c3ccc4c(c3)CCCS4)c2)n1 [Example 82, 2-{4-[3-(3,4-Dihydro-2H-thiochromen-6-yl)phenyl]-2-isopropyl-1H-imidazol-5-yl}-6-methylpyridine]
136 to 139 | Cc1cccc(-c2[nH]c(C(C)C)nc2-c2cccc(-c3ccc4c(c3)CCC[S+]4[O-])c2)n1 (stereo not shown) [Example 83, 2-{2-Isopropyl-4-[3-(1-oxido-3,4-dihydro-2H-thiochromen-6-yl)phenyl]-1H-imidazol-5-yl}-6-methylpyridine]
137 to 138 | Cc1cccc(-c2[nH]c(C(C)C)nc2-c2cccc(-c3ccc4c(c3)C=CS4(=O)=O)c2)n1 [Example 85, 2-{4-[3-(1,1-Dioxido-1-benzothien-5-yl)phenyl]-2-isopropyl-1H-imidazol-5-yl}-6-methylpyridine]
128 to 131 | Cc1cccc(-c2[nH]c(C(C)C)nc2-c2cccc(-c3ccc4c(c3)CCS4(=O)=O)c2)n1 [Example 86, 2-{4-[3-(1,1-Dioxido-2,3-dihydro-1-benzothien-5-yl)phenyl]-2-isopropyl-1H-imidazol-5-yl}-6-methylpyridine]
133 to 136 | Cc1cccc(-c2[nH]c(C(C)C)nc2-c2cccc(-c3ccc(NS(=O)(=O)C4CC4)cn3)c2)n1 [Example 87, N-(6-{3-[2-Isopropyl-5-(6-methylpyridin-2-yl)-1H-imidazol-4-yl]phenyl}pyridin-3-yl)cyclopropanesulfonamide]
112 to 114 | Cc1cccc(-c2[nH]c(C(C)C)nc2-c2cccc(-c3ccc(S(C)(=O)=O)cn3)c2)n1 [Example 88, 2-{3-[2-Isopropyl-5-(6-methylpyridin-2-yl)-1H-imidazol-4-yl]phenyl}-5-(methylsulfonyl)pyridine]
158 to 161 | Cc1cccc(-c2[nH]c(C(C)C)nc2-c2cccc(-n3ccnc3)c2)n1 [Example 90, 2-{4-[3-(1H-Imidazol-1-yl)phenyl]-2-isopropyl-1H-imidazol-5-yl}-6-methylpyridine]
